From patent US7446117B2, “Cox-2 inhibiting pyridine derivatives” (Glaxo Group Limited, priority 2002, dated 2008)

Biological target: T1, microsomal h-COX2 (Homo sapiens, UniProt P35354)
T1 construct: made in house; host or cells: baculovirus infected SF9 cells (microsomal preparation)
T1 sequence (P35354 18-604): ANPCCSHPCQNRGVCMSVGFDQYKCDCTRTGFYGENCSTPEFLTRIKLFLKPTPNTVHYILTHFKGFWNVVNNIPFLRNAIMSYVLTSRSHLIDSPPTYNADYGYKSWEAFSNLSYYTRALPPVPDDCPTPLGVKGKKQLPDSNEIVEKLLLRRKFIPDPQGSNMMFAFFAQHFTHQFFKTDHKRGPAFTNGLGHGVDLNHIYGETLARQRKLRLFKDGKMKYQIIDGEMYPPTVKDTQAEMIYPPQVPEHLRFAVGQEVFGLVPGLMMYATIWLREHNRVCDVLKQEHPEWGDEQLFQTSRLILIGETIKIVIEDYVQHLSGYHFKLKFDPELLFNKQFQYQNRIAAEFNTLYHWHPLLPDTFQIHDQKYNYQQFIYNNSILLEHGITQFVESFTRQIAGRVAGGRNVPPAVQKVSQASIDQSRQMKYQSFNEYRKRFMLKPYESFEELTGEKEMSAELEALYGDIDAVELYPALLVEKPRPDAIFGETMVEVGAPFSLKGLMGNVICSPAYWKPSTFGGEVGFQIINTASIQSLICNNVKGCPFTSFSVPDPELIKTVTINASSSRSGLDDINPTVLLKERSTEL
Assay: Microsomal assay: inhibitory activity against microsomal h-COX2
Type: biochemical
Settings: microsomal preparation from baculovirus infected SF9 cells; 1 hour incubation with compound; 0.1 μM arachidonic acid, 10 minutes; PGE2 by EIA; read-out: IC50 values for inhibition of COX-2
Summary of the method: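 Microsomes from baculovirus-infected SF9 cells, in pH 7.4 HEPES buffer with phenol, glutathione, gelatin and hematin, preincubated with compound 1 h at room temperature. Arachidonic acid at 0.1 μM final was added for exactly 10 min at room temperature, stopped with HCl. PGE2 was measured by EIA.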

Structure (SMILES)	IC50 [nM]
CCc1cc(-c2ccc(S(C)(=O)=O)cc2)nc(NCc2ccc(C)nc2)c1C#N [Example 224]	≤ 500
CCc1cc(NCc2ncnn2C)nc(-c2ccc(S(C)(=O)=O)cc2)c1 [Example 233]	≤ 500
CCn1ncnc1CNc1cc(C)cc(-c2ccc(S(C)(=O)=O)cc2)n1 [Example 234, N-[(1-ethyl-1H-1,2,4-triazol-5-yl)methyl]-4-methyl-6-[4-(methylsulfonyl)phenyl]pyridine-2-amine]	≤ 500
CCn1ncnc1CNc1cc(C(F)(F)F)cc(-c2ccc(S(C)(=O)=O)cc2)n1 [Example 235]	≤ 500
CCc1cc(-c2ccc(S(C)(=O)=O)cc2)nc(OCc2ccc(C)nc2)c1C#N [Example 236, 4-Ethyl-2-{[(6-methyl-3-pyridinyl)methyl]oxy}-6-[4-(methylsulfonyl)phenyl]-3-pyridinecarbonitrile]	≤ 500

More lines, now with the values ahead:

IC50 [nM]	Structure (SMILES)
≤ 500	CCc1cc(-c2ccc(S(C)(=O)=O)cc2)nc(NCc2cnn(C)c2)c1C#N [Example 228]
≤ 500	CCc1cc(-c2ccc(S(C)(=O)=O)cc2)nc(NCc2nc(C)cs2)c1C#N [Example 229]
≤ 500	CCc1cc(-c2ccc(S(C)(=O)=O)cc2)nc(NCC2CCCCC2)c1C#N [Example 231]
≤ 500	CCc1cc(NCc2ncnn2CC)nc(-c2ccc(S(C)(=O)=O)cc2)c1 [Example 232]
